This passage reports Activity, MST and Time results from ChEMBL document CHEMBL4145552, “Marine derived xyloketal derivatives exhibit anti-stress and anti-ageing effects through HSF pathway in Caenorhabditis elegans” (2018).

Active and inactive are the calls of the source. No cut-off for these calls is given here. A value given as a limit tells only on which side of the number the result lay.

For experiment [1], the system named is Caenorhabditis elegans. The experiment in a line: Protection against thermal stress in Caenorhabditis elegans N2 assessed as increase in mean survival time at 100 uM at 37 degC measured every 1 hr post treatment relative to control. Type of experiment: functional.
In experiment [2] the test system is Caenorhabditis elegans. Nature of the experiment: Anti-ageing activity in Caenorhabditis elegans PS3551 harboring HSF-1 mutant assessed as increase in life span by measuring mean survival time measured up to 20 days post treatment (reference value: 10.89 +/- 0.17 day). Format: functional.
In experiment [3] the test system is Caenorhabditis elegans. The experiment in a line: Anti-ageing activity in Caenorhabditis elegans N2 assessed as increase in life span at 300 uM relative to control. Type of experiment: functional.
Experiment [4] relates to Caenorhabditis elegans. The experiment in a line: Anti-ageing activity in Caenorhabditis elegans N2 assessed as increase in rate of health span in maximal lifespan at 300 uM. Type of experiment: functional, organism-based.
In experiment [5] the test system is Caenorhabditis elegans. The experiment in a line: Protection against amyloid beta aggregation-induced paralysis in Caenorhabditis elegans CL4176 harboring temperature-inducible human amyloid beta (3 to 42) transgene assessed as time delay in progression of paralysis at 26 degC after 36 hrs. Format: functional.
In experiment [6] the test system is Caenorhabditis elegans. The experiment in a line: Protection against thermal stress in Caenorhabditis elegans PS3551 harboring HSF-1 mutant assessed as mean survival time at 37 degC measured every 1 hr up to 8 hrs post treatment (reference value: 4.37 +/- 0.1 hrs). Type of experiment: functional.
In experiment [7] the test system is Caenorhabditis elegans. Nature of the experiment: Anti-ageing activity in Caenorhabditis elegans N2 assessed as increase in rate of health span on bending in lifespan at 300 uM measured for 3 secs at 3 days time interval up to 16 days relative to control. Type of experiment: functional.
In experiment [8] the test system is Caenorhabditis elegans. Nature of the experiment: Anti-ageing activity in Caenorhabditis elegans N2 assessed as increase in rate of health span on pumping in lifespan at 300 uM measured for 10 secs at 2 days time interval up to 21 days by dissecting microscopic method relative to control. Type of experiment: functional.
The test system of experiment [9] is Caenorhabditis elegans. Nature of the experiment: In vivo activation of HSF-1 pathway in Caenorhabditis elegans N2 assessed as increase in HSP70 protein expression by Western blot analysis relative to control. Type of experiment: functional. On the technique in general: In western blotting, separated proteins are transferred to a membrane and probed.
Experiment [10] relates to Caenorhabditis elegans. The experiment in a line: Protection against thermal stress in Caenorhabditis elegans N2 assessed as increase in mean survival time at 300 uM at 37 degC measured every 1 hr post treatment relative to control. Type of experiment: functional.

Turning to `COC(=O)c1c(O)c2c(c3c1OC1OCCCC1C3)OC1OCCCC1C2` (stereo not given), the outcome with Caenorhabditis elegans [1] was Active.

Take `C[C@H]1CO[C@]2(C)Oc3c(c4c(c5c3C[C@@H]3[C@@H](C)CO[C@]3(C)O5)CN(c3ccc(Cl)cc3)CO4)C[C@H]12`: the result in the experiment with Caenorhabditis elegans [1] was Active.

For the compound `C[C@H]1CO[C@]2(C)Oc3c(c4c(c5c3C[C@@H]3[C@@H](C)CO[C@]3(C)O5)CN(c3ccc([N+](=O)[O-])cc3)CO4)C[C@H]12`, in the experiment on Caenorhabditis elegans [1], the result was inactive.

In the case of `C[C@H]1CO[C@]2(C)Oc3c(c4c(c5c3C[C@@H]3[C@@H](C)CO[C@]3(C)O5)CN(c3ccc(O)cc3)CO4)C[C@H]12`, the Activity is 15.38% in the experiment on Caenorhabditis elegans [1]; 11% with Caenorhabditis elegans [3]; “<=22%” in the experiment on Caenorhabditis elegans [7]; 16% with Caenorhabditis elegans [8]; 28% with Caenorhabditis elegans [9]; “<=23.96%” in the experiment on Caenorhabditis elegans [10]. The MST with Caenorhabditis elegans [2] worked out at 10.99 days; in the experiment with Caenorhabditis elegans [6] it was 4.32 h. For the same compound, the result in the experiment on Caenorhabditis elegans [4] was Active. Further, in the experiment with Caenorhabditis elegans [5], the Time is 2.8 h.

For the compound `C[C@H]1CO[C@]2(C)Oc3c(c4c(c5c3C[C@@H]3[C@@H](C)CO[C@]3(C)O5)CN(c3ccc(F)cc3)CO4)C[C@H]12`, in the experiment on Caenorhabditis elegans [1], the result was Active.

As for `C[C@H]1CO[C@]2(C)Oc3c(c4c(c5c3C[C@@H]3[C@@H](C)CO[C@]3(C)O5)CN(c3ccc(I)cc3)CO4)C[C@H]12`, in the experiment on Caenorhabditis elegans [1], the outcome was Active.

For the compound `COc1ccc(N2COc3c4c(c5c(c3C2)O[C@@]2(C)OC[C@H](C)[C@H]2C5)O[C@@]2(C)OC[C@H](C)[C@H]2C4)cc1`, in the experiment with Caenorhabditis elegans [1], the outcome was Active.

As to `CNC(=O)c1c(O)c2c(c3c1OC1OCCCC1C3)OC1OCCCC1C2` (stereo not given), the outcome in the experiment with Caenorhabditis elegans [1] was Active.

`C[C@H]1CO[C@]2(C)Oc3cc(OC/C=C/c4ccccc4)c4c(c3C[C@H]12)O[C@@]1(C)OC[C@H](C)[C@H]1C4`: the outcome in the experiment on Caenorhabditis elegans [1] was inactive.

Turning to `O=c1c(O)c(-c2ccc(O)c(O)c2)oc2cc(O)cc(O)c12` [QUERCETIN], the Activity in the experiment on Caenorhabditis elegans [1] is reported as 8.81%.

Turning to `C[C@H]1CO[C@]2(C)Oc3c(c4c(c5c3C[C@@H]3[C@@H](C)CO[C@]3(C)O5)CN(c3ccc(Br)cc3)CO4)C[C@H]12`, the result with Caenorhabditis elegans [1] and with Caenorhabditis elegans [10] was Active.

Turning to `COC(=O)c1c(O)c2c(c3c1O[C@@]1(C)OC[C@H](C)[C@H]1C3)O[C@@]1(C)OC[C@H](C)[C@H]1C2`, the result in the experiment on Caenorhabditis elegans [1] and with Caenorhabditis elegans [10] was Active.

In the case of `CCCCN1COc2c3c(c4c(c2C1)O[C@@]1(C)OC[C@H](C)[C@H]1C4)O[C@@]1(C)OC[C@H](C)[C@H]1C3`, the result in the experiment on Caenorhabditis elegans [1] was Active.

On to `CCCCSC(=O)c1c(O)c2c(c3c1OC1OCCCC1C3)OC1OCCCC1C2` (stereo not given), for which, in the experiment with Caenorhabditis elegans [1], the result was Active.

As to `COC(=O)CNC(=O)c1c(O)c2c(c3c1O[C@@]1(C)OC[C@H](C)[C@H]1C3)O[C@@]1(C)OC[C@H](C)[C@H]1C2`, the result with Caenorhabditis elegans [1] and in the experiment on Caenorhabditis elegans [10] was Active.

Take `CC1CC2Cc3c(cc(O)c4c3OC3(C)OC(C)CC3C4)OC2(C)O1` (stereo not given): the result with Caenorhabditis elegans [1] was inactive.

Take `C[C@H]1CO[C@]2(C)Oc3c(c4c(c5c3C[C@@H]3[C@@H](C)CO[C@]3(C)O5)CN(c3ccc(C(=O)O)cc3)CO4)C[C@H]12`: in the experiment with Caenorhabditis elegans [1], the outcome was Active.

For the compound `C[C@H]1CO[C@]2(C)Oc3c(c4c(c5c3C[C@@H]3[C@@H](C)CO[C@]3(C)O5)CN(CCOCCO)CO4)C[C@H]12`, the outcome with Caenorhabditis elegans [1] was Active.

For the compound `C[C@H]1CO[C@]2(C)Oc3c(c4c(c5c3C[C@@H]3[C@@H](C)CO[C@]3(C)O5)CN(c3ccccc3)CO4)C[C@H]12`, the result in the experiment with Caenorhabditis elegans [1] was inactive.

For `C[C@H]1CO[C@]2(C)Oc3c(c(O)c(C(=O)NCCc4ccc(O)cc4)c4c3C[C@@H]3[C@@H](C)CO[C@]3(C)O4)C[C@H]12`, the outcome in the experiment with Caenorhabditis elegans [1] was Active.

As for `C[C@H]1CO[C@]2(C)Oc3c(c4c(c5c3C[C@@H]3[C@@H](C)CO[C@]3(C)O5)CN(C)CO4)C[C@H]12`, the result in the experiment on Caenorhabditis elegans [1] was Active.

For `C[C@H]1CO[C@]2(C)Oc3cc(O)c4c(c3C[C@H]12)O[C@@]1(C)OC[C@H](C)[C@H]1C4`, the result in the experiment on Caenorhabditis elegans [1] and with Caenorhabditis elegans [10] was Active.

As to `Oc1cc2c(c3c1CC1CCCOC1O3)CC1CCCOC1O2` (stereo not given), in the experiment on Caenorhabditis elegans [1], the result was Active.

Take `CCCCOc1cc2c(c3c1C[C@@H]1[C@@H](C)CO[C@]1(C)O3)C[C@@H]1[C@@H](C)CO[C@]1(C)O2`: the outcome in the experiment on Caenorhabditis elegans [1] and with Caenorhabditis elegans [10] was Active.

Regarding `COC(=O)C(Cc1cc2ccccc2[nH]1)NC(=O)c1c(O)c2c(c3c1O[C@@]1(C)OC[C@H](C)[C@H]1C3)O[C@@]1(C)OC[C@H](C)[C@H]1C2` (stereo not given in full), the outcome with Caenorhabditis elegans [1] was Active.

`C[C@H]1CO[C@]2(C)Oc3c(c(O)c(C(=O)Nc4ccc(F)cc4)c4c3C[C@@H]3[C@@H](C)CO[C@]3(C)O4)C[C@H]12`: in the experiment with Caenorhabditis elegans [1], the result was Active.

As to `COC(=O)C(Cc1ccc(O)cc1)NC(=O)c1c(O)c2c(c3c1O[C@@]1(C)OC[C@H](C)[C@H]1C3)O[C@@]1(C)OC[C@H](C)[C@H]1C2` (stereo not given in full), the result with Caenorhabditis elegans [1] and with Caenorhabditis elegans [10] was Active.

In the case of `C[C@H]1CO[C@]2(C)Oc3c(c(O)c(C(=O)O)c4c3C[C@@H]3[C@@H](C)CO[C@]3(C)O4)C[C@H]12`, the result in the experiment on Caenorhabditis elegans [1] was Active.

As to `COc1ccc(NC(=O)c2c(O)c3c(c4c2O[C@@]2(C)OC[C@H](C)[C@H]2C4)O[C@@]2(C)OC[C@H](C)[C@H]2C3)cc1`, the outcome in the experiment with Caenorhabditis elegans [1] was Active.

For the compound `COC1(C)CCc2c(cc(O)c3c2OC(C)(OC)CC3)O1` (stereo not given), the outcome in the experiment with Caenorhabditis elegans [1] was Active.
